The values that follow come from patent US11739122B2, “Glycopeptide antibiotic compounds, methods for producing the same, and uses thereof” (Academia Sinica, priority 2019, dated 2023).

Assay [1] relates to A. baumannii ATCC 19606. The assay can be described thus: MIC, broth microdilution. Type of assay: cell-based, Acinetobacter baumannii. On the procedure:
Determination of Minimal Inhibitory Concentration (MIC) for Vancomycin, Teicoplanin and Tei-Analogs Versus Selected Strains
MICs were determined by the broth microdilution method. Specifically, 12 Colonies of the test strain were picked up from 18-24 hour agar cultures and freshly inoculated into broth mediums until reaching the turbidity of a 0.5 McFarland standard. The broth culture was adjusted with broth medium to approximately 1×10^8 CFUmL^−1. […] The plates were incubated in 37° C. for 18-24 hours and monitored for the wells of the positive control, where cells grew, and the wells of the negative control, where wells should not grow. The MIC value was determined for the concentration of a test compound, at which there was no visible growth in the well.

The test system of assay [2] is A. baumannii ATCC 19606. The assay can be described thus: Thin-section TEM, cell wall morphology. It is filed as cell-based, Acinetobacter baumannii. The settings on record: AB ATCC 19606; 24 50 μM, colistin 3.2 μM, combination 25 μM each.
Description: Thin-Section Transmission Electron Microscopy (TEM)
An overnight cultured MRSA ATCC 700787, VRE ATCC 700221 or A. baumannii ATCC 19606 was individually sub-cultured into a fresh medium. Bacteria at the exponential phase were treated with a given test compound at a concentration of 4×MIC for 1-4 hour at 37° C. and followed by wash and resuspension in PBS. Bacteria cells for the TEM analysis were prepared as follows: Cells were fixed with 2.5% glutaraldehyde for 30 minutes. After the fixation, cells were washed twice with PBS and fixed with 1% osmium tetraoxide for another 30 minutes. All the buffer was removed with distilled water. The cells were then stained with 1% uranyl acetate and dehydrated with a graded ethanol solution. Cells were embedded in resin. Finally, each sample was cut into thin slices of approximately 90 nm with a glass knife and stained with uranyl acetate. The images of bacterial morphological were recorded.
Assay [3] has as its target Dbv27 (Nonomuraea gerenzanensis, UniProt Q7WZ64). The assay can be described thus: ITC binding affinity. The settings on record: ITC versus Dbv27. On the procedure:
Isothermal Titration Calormetry (ITC) Analysis
A stock solution (50 mM) was prepared by dissolving r6,GlcNAc pseudoaglycone (9) in 50% DMSO. The 1 mM protein solutions of Orf2*, Orf2*T and Dbv27 were prepared in a 50 mM HEPES buffer solution at pH 8.0. The solution (50 mM HEPES, pH8.0 and 10% DMSO) that contained compound 9 (1 mM) or S-adenosylmethionine (SAM) (1 mM) in a 40 μL injection syringe was titrated into the Orf2*, Orf2*T or Dbv27 (0.1 mM) protein solution, which was placed in the sample cell of a 200 μL volume. Each titration consisted of 16 injections of a 2 μL4 s^−1 duration in an interval of 150 seconds. Data analysis was performed by software.

Sequence of Dbv27 (Q7WZ64 entry or part of it): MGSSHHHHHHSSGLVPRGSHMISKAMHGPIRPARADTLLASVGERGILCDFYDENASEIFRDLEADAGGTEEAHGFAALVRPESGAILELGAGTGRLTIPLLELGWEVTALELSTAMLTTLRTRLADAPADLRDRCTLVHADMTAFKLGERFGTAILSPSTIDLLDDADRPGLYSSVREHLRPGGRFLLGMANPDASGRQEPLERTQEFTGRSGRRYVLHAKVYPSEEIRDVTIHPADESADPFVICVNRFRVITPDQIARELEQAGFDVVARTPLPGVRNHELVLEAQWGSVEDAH

As to colistin sulfate [reference compound], in assay [1] (A. baumannii ATCC 19606), the “MIC on AB” value turned out to be 1.98 µg/mL. Also, the MIC (as a rule, the smallest concentration in the dilution series that meets the test's criterion for growth inhibition) in assay [1] (A. baumannii ATCC 19606, Table 3, first figure of cell) was 1.56 µM; in assay [1] (A. baumannii ATCC 19606, Table 3, second figure of cell) it was 1.98 µg/mL. Moreover, the “cell membrane/cell wall morphology by TEM” value in assay [2] is “intactness of cell membrane/cell wall was severely damaged”.

As for `C[S+](CC[C@H](N)C(=O)[O-])C[C@H]1O[C@@H](n2cnc3c(N)ncnc32)[C@H](O)[C@@H]1O` (stereo partly drawn) [SAM, S-adenosylmethionine, reference compound], binding in assay [3] was put at a Kd of 10 µM.

`N[C@H]1[C@H](O[C@@H]2c3ccc(c(Cl)c3)Oc3cc4cc(c3O)Oc3ccc(cc3Cl)C[C@H]3NC(=O)[C@H](N)c5ccc(O)c(c5)Oc5cc(O)cc(c5)[C@H](NC3=O)C(=O)N[C@H]4C(=O)N[C@H]3C(=O)N[C@@H]2C(=O)N[C@H](C(=O)O)c2cc(O)cc(O)c2-c2cc3ccc2O)O[C@H](CO)[C@@H](O)[C@@H]1O` [Compound 12, r6,Glm pseudoaglycone]: in assay [3], binding was characterised by a dissociation constant (Kd) of 5 µM. This Kd lies about 2-fold lower than the previous one.
